Data reported in patent US9445998B2, “Pharmaceutical dosage forms comprising a low-solubility drug and a polymer” (Bend Research, Inc., priority 2004, dated 2016).
≈ marks a conversion by molar mass, not a printed value. Counter-ions that a name gives are not always drawn. Like-named read-outs stand apart in the source and are kept apart here.

Legend:
[1] = for maximum dissolved drug concentration: pH 6.5 PBS solution; for solubility in phosphate buffered saline: pH 6.5
Text: It is known that some drugs may crystallize into one of several different crystal forms. Such crystal forms are often referred to as “polymorphs.” As used herein, “a high-energy crystalline form” means that the drug is in a crystal form which provides solubility improvement as described below.
By “amorphous” is meant simply that the drug is in a non-crystalline state. As used herein, the term “a major portion” of means that at least 60 wt % of the drug in the composition is in the amorphous form, rather than the crystalline form. […] Amounts of crystalline drug may be measured by Powder X-Ray Diffraction (PXRD), Scanning Electron Microscope (SEM) analysis, differential scanning calorimetry (DSC), or any other standard quantitative measurement.
An appropriate PBS solution is an aqueous solution comprising 20 mM Na2HPO4, 47 mM KH2PO4, 87 mM NaCl, and 0.2 mM KCl, adjusted to pH 6.5 with NaOH. An appropriate MFD solution is the same PBS solution wherein there is also present 7.3 mM sodium taurocholic acid and 1.4 mM of 1-palmitoyl-2-oleyl-sn-glycero-3-phosphocholine. Water is a preferred dissolution media for some fast precipitating salts. […] In such cases it may be preferred to use an unbuffered test medium such as distilled water as the dissolution medium.

Solubility in water = assay type: physicochemical; settings: expressed as the free base, hydrochloride monohydrate
Text: An example of a drug having a crystalline highly soluble salt form is ziprasidone. Ziprasidone hydrochloride monohydrate has a solubility of about 10 μgA/mL (expressed as the free base) in water, whereas the free base form has a solubility of less than about 0.2 μgA/mL under the same conditions. Thus, crystalline ziprasidone hydrochloride is a solubility-improved form relative to the crystalline free base form of ziprasidone.

[2] = Microcentrifuge dissolution test in MFD solution; assay type: physicochemical; design: AUC: concentration or dose not given beside the values; settings: for Dissolved Ziprasidone Concentration / AUC: MFD solution pH 6.5, 37° C.; for Dissolved Ziprasidone Concentration: 200 μgA/mL if all dissolved
Protocol: A microcentrifuge dissolution test was performed to verify that ziprasidone hydrochloride monohydrate is a solubility-improved form of ziprasidone. For this test, a sufficient amount of ziprasidone hydrochloride monohydrate was added to a microcentrifuge test tube so that the concentration of ziprasidone would have been 200 μgA/mL, if all of the ziprasidone had dissolved. The tests were run in duplicate. The tubes were placed in a 37° C. temperature-controlled chamber, and 1.8 mL MFD solution at pH 6.5 and 290 mOsm/kg was added to each respective tube. The samples were quickly mixed using a vortex mixer for about 60 seconds. The samples were centrifuged at 13,000 G at 37° C. for 1 minute prior to collecting a sample. The resulting supernatant solution was then sampled and diluted 1:5 (by volume) with methanol. Samples were analyzed by high-performance liquid chromatography (HPLC) at a UV absorbance of 315 nm using a Zorbax RxC8 Reliance column and a mobile phase consisting of 55% (50 mM potassium dihydrogen phosphate, pH 6.5)/45% acetonitrile. Drug concentration was calculated by comparing UV absorbance of samples to the absorbance of drug standards. The contents of each tube were mixed on the vortex mixer and allowed to stand undisturbed at 37° C. until the next sample was taken. Samples were collected at 4, 10, 20, 40, 90, and 1200 minutes following administration to the MFD solution.
A similar test was performed with the crystalline ziprasidone free base as a control, and a sufficient amount of material was added so that the concentration of compound would have been 200 μgA/mL, if all of the ziprasidone had dissolved.
The concentrations of ziprasidone obtained in these tests were used to determine the maximum dissolved concentration of ziprasidone (“MDC90”) and the area under the concentration-versus-time curve (“AUC90”) during the initial ninety minutes.

[3] = assay type: physicochemical; settings: not told
Protocol: An Accurel® PP 1E microporous polypropylene membrane was obtained from Membrana GmbH (Wuppertal, Germany). The membrane was washed in isopropyl alcohol and rinsed in methanol in a sonicating bath for 1 minute at ambient temperature, and then allowed to air dry at ambient temperature. The feed side of the membrane was then plasma-treated to render it hydrophilic by placing a sample of the membrane in a plasma chamber. The atmosphere of the plasma chamber was saturated with water vapor at a pressure of 550 mtorr. A plasma was then generated using radio frequency (RF) power inductively coupled into the chamber via annular electrodes at a power setting of 50 watts for 45 seconds. The contact angle of a drop of water placed on the surface of the plasma-treated membrane was less than about 40°. The contact angle of a drop of water placed on the permeate side of the same membrane was greater than about 110°.
A permeate reservoir was formed by gluing a sample of the plasma-treated membrane to a glass tube having an inside diameter of about 1 inch (2.54 cm) using an epoxy-based glue (LOCTITE® E-30CL HYSOL® from Henkel Loctite Corp, Rocky Hill, Conn.). The feed-side of the membrane was oriented so that it was on the outside of the permeate reservoir, while the permeate-side of the membrane was oriented so that it was on the inside of the reservoir. The effective membrane area of the membrane on the permeate reservoir was about 4.9 cm^2. The permeate reservoir was placed into a glass feed reservoir. The feed reservoir was equipped with a magnetic stir bar and the reservoir was placed on a stir plate and the stir rate was set to 100 rpm during the test. The apparatus was placed into a chamber maintained at 37° C. for the duration of the test. Further details of the test apparatus and protocols are presented in co-pending U.S. Patent Application Ser. No. 60/557,897, entitled “Method and Device for Evaluation of Pharmaceutical Compositions,” filed Mar. 30, 2004, incorporated herein by reference.
To form the feed solution, a 1.429 mg (0.5 mgA) sample of CC-1 was weighed into a feed reservoir. (As used herein, “mgA” is milligrams of active drug, reported as the free base, non-salt form, non-hydrate drug molecule.) To this was added 5 mL of the MFD solution previously described, consisting of PBS solution containing 7.3 mM sodium taurocholic acid and 1.4 mM of 1-palmitoyl-2-oleyl-sn-glycero-3-phosphocholine (0.5% NaTC/POPC). […] The feed solution was mixed using a vortex mixer for 1 minute. Before the membrane contacted the feed solution, 5 mL of 60 wt % decanol in decane was placed into the permeate reservoir. Time zero in the test was when the membrane was placed in contact with the feed solution. A […] aliquot of the permeate solution was collected at the times indicated. Samples were then diluted in […] IPA and analyzed using HPLC.
The maximum flux of drug across the membrane (in units of μgA/cm^2-min) was determined by performing a least-squares fit to the data in Table 4 from 0 to 60 minutes to obtain the slope (CC-1: 0.26 μgA/mL-min; Control 1A: 0.13 μgA/mL-min; Control 1B: 0.07 μgA/mL-min), multiplying the slope by the permeate volume (5 mL), and dividing by the membrane area (4.9 cm^2).

Compound: O=C(N[C@@H](Cc1ccccc1)[C@@H](O)C(=O)N1C[C@@H](O)[C@@H](O)C1)c1cc2cc(Cl)ccc2[nH]1 [amorphous form, 5-chloro-1H-indole-2-carboxylic acid [(1S)-benzyl-3-((3R,4S)-dihydroxypyrrolidin-1-yl-)-(2R)-hydroxy-3-oxypropyl]amide]
- maximum dissolved drug concentration [1]: about 600 μg/mL

Compound: O=C(N[C@@H](Cc1ccccc1)[C@@H](O)C(=O)N1C[C@@H](O)[C@@H](O)C1)c1cc2cc(Cl)ccc2[nH]1 [A2, 5-chloro-1H-indole-2-carboxylic acid [(1S)-benzyl-3-((3R,4S)-dihydroxypyrrolidin-1-yl)-(2R)-hydroxy-3-oxpropyl]amide]
- solubility in phosphate buffered saline [1]: 87 µg/mL (≈ 190 µM)
- maximum dissolved drug concentration [1]: 87 µg/mL

Compound: O=C(N[C@@H](Cc1ccccc1)[C@@H](O)C(=O)N1C[C@@H](O)[C@@H](O)C1)c1cc2cc(Cl)ccc2[nH]1 [A1, 5-chloro-1H-indole-2-carboxylic acid [(1S)-benzyl-3-((3R,4S)-dihydroxypyrrolidin-1-yl)-(2R)-hydroxy-3-oxpropyl]amide]
- solubility in phosphate buffered saline [1]: about 480 μg/mL

Compound: O=C1Cc2cc(CCN3CCN(c4nsc5ccccc45)CC3)c(Cl)cc2N1 [Ziprasidone hydrochloride monohydrate, ziprasidone hydrochloride monohydrate]
- solubility in water (Solubility in water): about 10 μgA/mL
- AUC90 relative to that provided by the free base ([2]; MFD solution): 14 fold
- MDC90 relative to that provided by the free base ([2]; MFD solution): 11 fold
- Dissolved Ziprasidone Concentration ([2]; time 0 min): 0 μgA/mL
- Dissolved Ziprasidone Concentration ([2]; time 4 min, hydrochloride monohydrate): 14 μgA/mL
- Dissolved Ziprasidone Concentration ([2]; time 10 min, hydrochloride monohydrate): 15 μgA/mL
- Dissolved Ziprasidone Concentration ([2]; time 20 min, hydrochloride monohydrate): 20 μgA/mL
- Dissolved Ziprasidone Concentration ([2]; time 40 min, hydrochloride monohydrate): 22 μgA/mL
- Dissolved Ziprasidone Concentration ([2]; time 90 min, hydrochloride monohydrate): 18 μgA/mL
- Dissolved Ziprasidone Concentration ([2]; time 1200 min, hydrochloride monohydrate): 9 μgA/mL
- AUC ([2]; up to time 0 min): 0 min-μgA/mL
- AUC ([2]; up to time 4 min, hydrochloride monohydrate): 30 min-μgA/mL
- AUC ([2]; up to time 10 min, hydrochloride monohydrate): 110 min-μgA/mL
- AUC ([2]; up to time 20 min, hydrochloride monohydrate): 280 min-μgA/mL
- AUC ([2]; up to time 40 min, hydrochloride monohydrate): 700 min-μgA/mL
- AUC ([2]; up to time 90 min, hydrochloride monohydrate): 1,700 min-μgA/mL
- AUC ([2]; up to time 1200 min, hydrochloride monohydrate): 16,400 min-μgA/mL
- AUC90 ([2]; area under the concentration-versus-time curve during the initial ninety minutes, MFD solution, hydrochloride monohydrate): 1700 min·µgA/mL
- MDC90 ([2]; maximum dissolved concentration during the initial ninety minutes, MFD solution, hydrochloride monohydrate): 22 µgA/mL
- Maximum Flux of Ziprasidone [3]: 0.16 μgA/cm^2-min
- Concentration (drug in the permeate solution) ([3]; 0 min, 100 μgA/mL, pH 6.5): 0.5 μgA/mL
- Concentration (drug in the permeate solution) ([3]; 20 min, 100 μgA/mL, pH 6.5): 5.2 μgA/mL
- Concentration (drug in the permeate solution) ([3]; 40 min, 100 μgA/mL, pH 6.5): 8.1 μgA/mL
- Concentration (drug in the permeate solution) ([3]; 60 min, 100 μgA/mL, pH 6.5): 10.0 μgA/mL
- Concentration (drug in the permeate solution) ([3]; 90 min, 100 μgA/mL, pH 6.5): 11.4 μgA/mL
- Concentration (drug in the permeate solution) ([3]; 120 min, 100 μgA/mL, pH 6.5): 12.9 μgA/mL
- Concentration (drug in the permeate solution) ([3]; 180 min, 100 μgA/mL, pH 6.5): 18.1 μgA/mL
- Concentration (drug in the permeate solution) ([3]; 240 min, 100 μgA/mL, pH 6.5): 20.9 μgA/mL
- Concentration (drug in the permeate solution) ([3]; 360 min, 100 μgA/mL, pH 6.5): 22.6 μgA/mL

Compound: O=C1Cc2cc(CCN3CCN(c4nsc5ccccc45)CC3)c(Cl)cc2N1 [Control 1A, ziprasidone hydrochloride monohydrate]
- Ziprasidone Concentration in Permeate ([3]; 0 min, 100 μgA/mL, pH 6.5): 0.5 μgA/mL
- Maximum Flux of Ziprasidone ([3]; 100 μgA/mL, pH 6.5): 0.13 μgA/cm^2-min
- Ziprasidone Concentration in Permeate ([3]; 20 min, 100 μgA/mL, pH 6.5): 3.8 μgA/mL
- Ziprasidone Concentration in Permeate ([3]; 40 min, 100 μgA/mL, pH 6.5): 6.0 μgA/mL
- Ziprasidone Concentration in Permeate ([3]; 60 min, 100 μgA/mL, pH 6.5): 8.4 μgA/mL
- Ziprasidone Concentration in Permeate ([3]; 90 min, 100 μgA/mL, pH 6.5): 12.4 μgA/mL
- Ziprasidone Concentration in Permeate ([3]; 120 min, 100 μgA/mL, pH 6.5): 15.3 μgA/mL
- Ziprasidone Concentration in Permeate ([3]; 180 min, 100 μgA/mL, pH 6.5): 20.6 μgA/mL
- Ziprasidone Concentration in Permeate ([3]; 240 min, 100 μgA/mL, pH 6.5): 25.2 μgA/mL
- Ziprasidone Concentration in Permeate ([3]; 360 min, 100 μgA/mL, pH 6.5): 30.6 μgA/mL

Compound: ziprasidone tosylate [Control 3]
- Maximum Flux of Ziprasidone [3]: 0.04 μg/cm^2-min
